The values that follow come from patent US20030013660A1, “Dioxolane analogs for improved inter-cellular delivery” (Shire BioChem Inc., priority 2000, published 2003).

SMILES strings stand for the structures.

Experiment [1] concerns SF-268. As to the kind of experiment: 3H-TdR (3H-thymidine) incorporation assay at 72 hr. In kind it is cell-based, Human. The note with it: 3H-TdR incorporation at 72 hr.
Experiment [2] relates to CEM/dCK-. As to the kind of experiment: MTT or WST-1 assay at 72 hr (24 hr drug exposure, wash, 48 hr). In kind it is cell-based. As to the method: (§1) Exposition of 24hr to drug, washed, and incubated for another 48hr (total of 72hr assay)
(In general: Tetrazolium assays rely on reduction of a dye to a coloured formazan, in cell work by metabolically active cells.)

In experiment [3] the test system is CCRF-CEM. The experiment is described as above. Format: cell-based. As to the method: as §1
In experiment [4] the test system is MCF-7. The experiment is described as follows: 3H-TdR (3H-thymidine) incorporation assay at 72 hr. In kind it is cell-based, Human. To be noted: 3H-TdR incorporation at 72 hr.
In experiment [5] the test system is H-460. As to the kind of experiment: 3H-TdR (3H-thymidine) incorporation assay at 72 hr. In kind it is cell-based, Human. To be noted: 3H-TdR incorporation at 72 hr.
Experiment [6] concerns CEM/dCK-. As to the kind of experiment: 3H-TdR (3H-thymidine) incorporation assay at 72 hr. Format: cell-based. The note with it: Homo sapiens, CCRF-CEM, read-out: IC50 CEM/dCK- 24 h, 24 h drug exposure, wash, another 48 hr; deoxycytidine kinase-deficient CCRF-CEM. As to the method:
Table of IC50 Values (μM) for Controls
(§2) Exposition of 24 hr to drug, wash, incubated for another 48 hr (total of 72 hr assay)
(§3) (3H-Thymidine Incorporation Assay)

Experiment [7] relates to H-460. As to the kind of experiment: MTT assay at 72 hr (24 hr drug exposure, wash, 48 hr). In kind it is cell-based. The note with it: Homo sapiens, NCI-H460, read-out: IC50 H-460 24 h, MTT at 72 hr, 24 h exposure, single experiment. The protocol:
as §1

The subject of experiment [8] is SF-268. The description is as above. Format: cell-based. The note with it: Homo sapiens, SF-268, read-out: IC50 SF-268 24 h, MTT at 72 hr, 24 h exposure, single experiment. As to the method: as §1
The test system of experiment [9] is MCF-7. The description is as above. In kind it is cell-based. The protocol:
as §1

The test system of experiment [10] is CEM/dCK-. As to the kind of experiment: 3H-TdR incorporation at 72 hr (24 hr drug exposure, wash, 48 hr). In kind it is cell-based. The note with it: for IC50: Homo sapiens, CCRF-CEM, read-out: IC50 in μM (3H-TdR incorporation at 72 hr) CEM/dCK- 24 h, CCRF-CEM deoxycytidine kinase-deficient, 24 h drug exposure, 72 hr assay; for Factor* (Resistance Factor = Ratio of dCK- on Wild-type CCRF-CEM): ratio of IC50 CEM/dCK- to IC50 CCRF-CEM. As to the method:
as §2, §3

Experiment [11] relates to CCRF-CEM. Described as above. In kind it is cell-based. The note with it: Homo sapiens, CCRF-CEM, read-out: IC50 in μM (3H-TdR incorporation at 72 hr) CCRF-CEM 24 h, CCRF-CEM T-cell Leukemia, 72 hr assay. The protocol:
as §2, §3

The subject of experiment [12] is H-460. The experiment is described as above. Format: cell-based, Human. The note with it: Homo sapiens, NCI-H460, read-out: IC50 in μM (3H-TdR incorporation at 72 hr) H-460 24 h, H-460 Human Lung Carcinoma, 72 hr assay. As to the method:
as §2, §3

Experiment [13] has as its system SF-268. Described as above. Format: cell-based, Human. To be noted: Homo sapiens, SF-268, read-out: IC50 in μM (3H-TdR incorporation at 72 hr) SF-268 24 h, SF-268 Human Central Nervous System Tumor; 24 h drug exposure, 72 hr assay. As to the method: as §2, §3
In experiment [14] the test system is MCF-7. Described as above. Format: cell-based, Human. To be noted: Homo sapiens, MCF7, read-out: IC50 in μM (3H-TdR incorporation at 72 hr) MCF-7 24 h, MCF-7 Human Breast Carcinoma, 72 hr assay. As to the method:
as §2, §3

[15] abbreviates: CEM/dCK- versus CCRF-CEM, single experiment.
The mark [16] stands for this setting: read-out: IC50 CEM/dCK- 24 h, MMT or WST-1 at 72 hr, 24 h exposure, single experiment.
The mark [17] stands for this setting: Homo sapiens, CCRF-CEM, read-out: IC50 CCRF-CEM 24 h, MMT or WST-1 at 72 hr, 24 h exposure, single experiment.
[18] abbreviates: Homo sapiens, MCF7, read-out: IC50 MCF-7 24 h, MTT at 72 hr, 24 h exposure, single experiment.
[19] abbreviates: read-out: IC50 CCRF-CEM 24 h, MMT or WST-1 at 72 hr, 24 h exposure, single experiment.
The mark [20] stands for this setting: read-out: IC50 MCF-7 24 h, MTT at 72 hr, 24 h exposure, single experiment.

As to `CC(C)CCCCC(=O)Nc1ccn([C@@H]2CO[C@H](CO)O2)c(=O)n1` [Compound 277, 6-METHYL-HEPTANOIC ACID [1-(2-HYDROXYMETHYL- [1,3]DIOXOLAN-4-YL)-2- OXO-1,2-DIHYDRO- PYRIMIDIN-4-YL]-AMIDE], the IC50 with SF-268 [1] (Homo sapiens, SF-268, read-out: IC50 SF-268 24 h, 24 h drug exposure, wash, another 48 hr) is 0.21 µM; in the experiment on SF-268 [1] (read-out: IC50 SF-268 24 h, 24 h drug exposure, wash, another 48 hr), 0.19 µM; in the experiment with CEM/dCK- [2] (setting [16]), over 100 µM; with CCRF-CEM [3] (setting [17]), 0.48 µM; in the experiment with MCF-7 [4] (Homo sapiens, MCF7, read-out: IC50 MCF-7 24 h, 24 h drug exposure, wash, another 48 hr), 0.013 µM; in the experiment with MCF-7 [4] (read-out: IC50 MCF-7 24 h, 24 h drug exposure, wash, another 48 hr), 0.016 µM. Also, the IC50 with H-460 [5] (Homo sapiens, NCI-H460, read-out: IC50 H-460 24 h, 24 h drug exposure, wash, another 48 hr) is 0.2 µM; in the experiment on H-460 [5] (read-out: IC50 H-460 24 h, 24 h drug exposure, wash, another 48 hr), 0.29 µM; in the experiment with CEM/dCK- [6], over 100 µM; in the experiment with H-460 [7] it was 2 µM; in the experiment on SF-268 [8], 7.3 µM; with MCF-7 [9] (setting [18]), 0.32 µM. The “Resistance Factor*” value in the experiment on CEM/dCK- [2] (setting [15]) is recorded as over 208.

As for `CC(C)C[C@H](NC(=O)OCc1ccccc1)C(=O)N[C@@H](C)C(=O)N[C@@H](CC(C)C)C(=O)Nc1ccn([C@@H]2CO[C@H](CO)O2)c(=O)n1` [Compound 267, [1-(1-{1-[1-(2- HYDROXYMETHYL- [1,3]DIOXOLAN-4-YL)-2- OXO-1,2-DIHYDRO- PYRIMIDIN-4- YLCARBAMOYL]-3-METHYL- BUTYLCARBAMOYL}- ETHYLCARBAMOYL)-3- METHYL-BUTYL]-CARBAMIC ACID BENZYL ESTER], the “Resistance Factor*” value with CEM/dCK- [2] (setting [15]) is listed as over 3. Besides, the IC50 in the experiment on CEM/dCK- [2] (setting [16]) was over 10 µM; with CCRF-CEM [3] (setting [17]) it was 2.9 µM; with H-460 [7], 93 µM; in the experiment on SF-268 [8], over 10 µM; with MCF-7 [9] (setting [18]), 34 µM.

As to `COc1ccc(C(OC[C@H]2OC[C@@H](n3ccc(N)nc3=O)O2)(c2ccc(OC)cc2)c2ccc(OC)cc2)cc1` [Compound 185, 4-AMINO-1-{2-[TRIS-(4- METHOXY-PHENYL)- METHOXYMETHYL]- [1,3]DIOXOLAN-4-YL}-1H- PYRIMIDIN-2-ONE], the “Resistance Factor*” value in the experiment on CEM/dCK- [2] (setting [15]) amounted to 67. In addition, the IC50 came to 12 µM with CEM/dCK- [2] (read-out: IC50 CEM/dCK- 24 h; MMT or WST-1 at 72 hr, 24 h exposure, single experiment); 0.18 µM in the experiment on CCRF-CEM [3] (setting [19]); 17 µM in the experiment with CEM/dCK- [10]; 0.066 µM with CCRF-CEM [11]; 0.059 µM in the experiment with H-460 [12]; 0.054 µM in the experiment on SF-268 [13]. Further, the IC50 worked out at 0.064 µM in the experiment with MCF-7 [14], 1.4 µM in the experiment with MCF-7 [9] (setting [18]) and 2.3 µM with MCF-7 [9] (setting [20]). Moreover, in the experiment with CEM/dCK- [10], the “Factor* (Resistance Factor = Ratio of dCK- on Wild-type CCRF-CEM)” value is 258.

On to `CC(C)C(C(=O)OC[C@H]1OC[C@@H](n2ccc(N)nc2=O)O1)c1ccccc1` (mixture of isomers) [Compound 262, 3-METHYL-2-PHENYL- BUTYRIC ACID 4-(4- AMINO-2-OXO-2H- PYRIMIDIN-1-YL)- [1,3]DIOXOLAN-2- YLMETHYL ESTER], for which, in the experiment on CEM/dCK- [2] (setting [15]), the “Resistance Factor*” value is on record as over 114. Further, the IC50 in the experiment on CEM/dCK- [2] (setting [16]) was over 100 µM; in the experiment on CCRF-CEM [3] (setting [17]), 0.88 µM; with H-460 [7], 0.9 µM; in the experiment on SF-268 [8], over 100 µM; with MCF-7 [9] (setting [18]) it was 16 µM.

For the compound `CC(C)C[C@H](NC(=O)[C@H](C)N)C(=O)Nc1ccn([C@@H]2CO[C@H](CO)O2)c(=O)n1.O=C(O)C(F)(F)F.O=C(O)C(F)(F)F` [Compound 265, 2-(2-AMINO- PROPIONYLAMINO)-4- METHYL-PENTANOIC ACID [1-(2-HYDROXYMETHYL- [1,3]DIOXOLAN-4-YL)-2- OXO-1,2-DIHYDRO- PYRIMIDIN-4-YL]-AMIDE, BIS TRIFLUOROACETIC ACID SALT], in the experiment on CEM/dCK- [2] (setting [15]), the “Resistance Factor*” value is over 3. The IC50 in the experiment on CEM/dCK- [2] (setting [16]) is over 100 µM; with CCRF-CEM [3] (setting [17]), 30 µM; in the experiment on H-460 [7], over 100 µM; in the experiment on SF-268 [8], over 100 µM; in the experiment on MCF-7 [9] (setting [18]), 77 µM.

In the case of `CC(C)C[C@H](N)C(=O)Nc1ccn([C@@H]2CO[C@H](CO)O2)c(=O)n1` [Compound 257, 2-AMINO-4-METHYL- PENTANOIC ACID [1-(2- HYDROXYMETHYL- [1,3]DIOXOLAN-4-YL)-2- OXO-1,2-DIHYDRO- PYRIMIDIN-4-YL]-AMIDE], the IC50 was over 100 µM in the experiment on CEM/dCK- [2] (setting [16]); 4.1 µM in the experiment with CCRF-CEM [3] (setting [17]); 5.4 µM in the experiment with CCRF-CEM [3] (setting [19]); over 100 µM in the experiment with CEM/dCK- [10]; 4.2 µM with CCRF-CEM [11]; 9.7 µM in the experiment with H-460 [12]. For the same compound, the IC50 in the experiment with SF-268 [13] was 1.6 µM; in the experiment on MCF-7 [14], 5 µM; with SF-268 [8] it was over 100 µM; in the experiment with MCF-7 [9] (setting [18]) it was 36 µM; in the experiment with MCF-7 [9] (setting [20]), 21 µM. Further, in the experiment with CEM/dCK- [10], the “Factor* (Resistance Factor = Ratio of dCK- on Wild-type CCRF-CEM)” value is over 24.

Regarding `CCCCC(C)(C)C(=O)OC[C@H]1OC[C@@H](n2ccc(N)nc2=O)O1.Cl` (stereo in doubt) [Compound 107, 2,2-DIMETHYLHEXANOIC ACID 4-(4-AMINO-2-OXO- 2H-PYRIMIDIN-1-YL)-1,3- DIOXOLAN-2-YLMETHYL ESTER HYDROCHLORIDE], in the experiment with CEM/dCK- [2] (setting [15]), the “Resistance Factor*” value came out at 2.042. Also, the IC50 in the experiment on CEM/dCK- [2] (setting [16]) was 49 µM; with CCRF-CEM [3] (setting [17]), 0.024 µM; with H-460 [7], 0.27 µM; in the experiment on SF-268 [8], 3.4 µM; with MCF-7 [9] (setting [18]), 0.25 µM.
